According to ChEMBL document CHEMBL3112539, “Synthesis of neoglycosphingolipid from methoxyamino-functionalized ceramide” (Bioorg Med Chem Lett, 2014):
Calls of active or inactive are those of the source. The rule behind the calls is not given here.

How the values were obtained:
[1] = molecular target: T1, Endoglycoceramidase II (Rhodococcus sp) (UniProt A0ACD6B832); experiment: Inhibition of Rhodococcus sp. recombinant endoglycoceramidase 2 hydrolytic activity assessed as lactose released from O-LacCer at 0.74 mM after 15 mins by modified Park and Johnson method
T1 sequence (A0ACD6B832 as listed by the source): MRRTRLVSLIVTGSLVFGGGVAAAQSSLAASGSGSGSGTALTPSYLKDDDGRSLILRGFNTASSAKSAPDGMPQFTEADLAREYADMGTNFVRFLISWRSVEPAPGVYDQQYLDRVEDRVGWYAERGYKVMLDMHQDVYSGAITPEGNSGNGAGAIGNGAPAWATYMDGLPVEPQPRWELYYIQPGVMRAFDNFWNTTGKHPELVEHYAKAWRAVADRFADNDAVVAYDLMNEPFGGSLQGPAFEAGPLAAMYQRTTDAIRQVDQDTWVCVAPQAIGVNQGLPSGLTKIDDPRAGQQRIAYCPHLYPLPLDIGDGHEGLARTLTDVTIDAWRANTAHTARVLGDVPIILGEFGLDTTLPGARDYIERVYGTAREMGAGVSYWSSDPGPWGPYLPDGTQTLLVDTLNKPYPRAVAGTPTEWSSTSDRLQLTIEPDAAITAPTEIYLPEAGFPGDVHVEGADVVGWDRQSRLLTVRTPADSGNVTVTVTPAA

[2] = molecular target: T1, Endoglycoceramidase II (Rhodococcus sp); experiment: (§1) Inhibition of Rhodococcus sp. recombinant endoglycoceramidase 2 hydrolytic activity assessed as lactose released from (2S,3S,4R)-2-[N-(octadecanoyl)amino]-1-{O-[beta-galactosylpyranosyl-(1->4)-beta-glucopyranosyl]}octadecane-1,3,4-triol at 0.27 mM after 15 mins by modified Park and Johnson method
[3] = molecular target: T1, Endoglycoceramidase II (Rhodococcus sp); experiment: as §1, with “Competitive inhibition” for “Inhibition”

CCCCCCCCCCCCCCCCCC(=O)N[C@@H](CN(OC)[C@@H]1O[C@H](CO)[C@@H](O[C@@H]2O[C@H](CO)[C@H](O)[C@H](O)[C@H]2O)[C@H](O)[C@H]1O)[C@H](O)[C@H](O)CCCCCCCCCCCCCC
inhibition [1]: inactive | inhibition [2]: Active | inhibition [3]: Active
